The record followed here is publication PMC5733478, “A Non-imaging High Throughput Approach to Chemical Library Screening at the Unmodified Adenosine-A3 Receptor in Living Cells” (Frontiers in Pharmacology, 2017).

Structures can show the parent of a compound that is named as a salt.

One assay deals with T1, human A3AR (Homo sapiens, UniProt P0DMS8).
T1 construct: expressed in transfected cells
T1 sequence (P0DMS8 1-318): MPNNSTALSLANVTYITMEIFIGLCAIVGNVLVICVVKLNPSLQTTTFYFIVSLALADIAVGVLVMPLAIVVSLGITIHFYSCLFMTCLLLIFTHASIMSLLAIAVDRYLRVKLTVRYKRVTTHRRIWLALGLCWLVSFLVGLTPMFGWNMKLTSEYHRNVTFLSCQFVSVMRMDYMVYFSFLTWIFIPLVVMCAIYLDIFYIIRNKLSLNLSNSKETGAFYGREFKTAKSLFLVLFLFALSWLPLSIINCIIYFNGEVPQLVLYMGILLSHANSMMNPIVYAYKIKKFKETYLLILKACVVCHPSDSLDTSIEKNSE
Description: LOPAC library primary screen: single concentration (10 μM) inhibition of 25 nM CA200645 binding, PHERAstar FS.
Conditions: not given
With `COc1ccc(-c2cc(=O)c3c(O)c(OC)c(OC)cc3o2)cc1O` [Eupatorin], the “% 25 nM CA200645 binding” value stood at 47.2 ± 12.7%.
Same read-out and setting: the result for `Clc1ccc(N2CCN(Cc3cc4ccccn4n3)CC2)cc1` [FAUC 213] reads 76.8 ± 3.4%; that for `COC(=O)c1c(C)[nH]c(C)c1C(=O)c1ccccc1Cc1ccccc1` [FPL 64176], 74.2 ± 6.7%.
For the compound `CCCn1c(=O)c2[nH]c(C3CCCC3)nc2n(CCCOC(=O)c2ccc(S(=O)(=O)F)cc2)c1=O` [FSCPX, reference compound], the “% 25 nM CA200645 binding” value came to 57.1 ± 9.1%.
For the compound `CC(=O)OCC(CCn1cnc2cnc(N)nc21)COC(C)=O` [Famciclovir], the “% 25 nM CA200645 binding” value was determined as 104.8 ± 9.2%.
Take `NC(=O)OCC(COC(N)=O)c1ccccc1` [Felbamate]: the “% 25 nM CA200645 binding” value turned out to be 98.7 ± 4.1%.
On the same count and under the same terms, for `CCOC(=O)C1=C(C)NC(C)=C(C(=O)OC)C1c1cccc(Cl)c1Cl` (stereo not shown) [Felodipine] the value was 79.1 ± 13.7%.
In the case of `CN1CC(=O)NC1=NC(=O)Nc1cccc(Cl)c1` [Fenobam], the “% 25 nM CA200645 binding” value came to 81.9 ± 15.0%.
Regarding `CC(C)OC(=O)C(C)(C)Oc1ccc(C(=O)c2ccc(Cl)cc2)cc1` [Fenofibrate], the “% 25 nM CA200645 binding” value is listed as 87.6 ± 17.1%.
As to `Oc1ccc(C2CNCCc3c2cc(O)c(O)c3Cl)cc1` (stereo not shown) [Fenoldopam bromide], the “% 25 nM CA200645 binding” value is recorded as 90.6 ± 5.5%.
With `O=C1NCC2(CCN(CCc3ccccc3)CC2)O1` [Fenspiride hydrochloride], the “% 25 nM CA200645 binding” value is given as 81.2 ± 5.0%.
Turning to `CC(C)(C(=O)O)c1ccc(C(O)CCCN2CCC(C(O)(c3ccccc3)c3ccccc3)CC2)cc1` (stereo not shown) [Fexofenadine hydrochloride], the “% 25 nM CA200645 binding” value was 93.9 ± 3.6%.
As to `Fc1ccc(C(c2ccc(F)cc2)N2CCN(C/C=C/c3ccccc3)CC2)cc1` [Flunarizine dihydrochloride], the “% 25 nM CA200645 binding” value is recorded as 102.1 ± 8.8%.
Consider `CNCCC(Oc1ccc(C(F)(F)F)cc1)c1ccccc1` (stereo not shown) [Fluoxetine hydrochloride], for which the “% 25 nM CA200645 binding” value amounted to 102.9 ± 7.1%.
`OCCN1CCN(CCCN2c3ccccc3Sc3ccc(C(F)(F)F)cc32)CC1` [Fluphenazine dihydrochloride]: the “% 25 nM CA200645 binding” value was found to be 98.1 ± 12.0%.
As for `CCOC(=O)Nc1ccc(NCc2ccc(F)cc2)nc1N` [Flupirtine maleate], the “% 25 nM CA200645 binding” value came to 75.3 ± 9.1%.
Take `O=C1NCN(c2ccccc2)C12CCN(CCCC(c1ccc(F)cc1)c1ccc(F)cc1)CC2` [Fluspirilene]: the “% 25 nM CA200645 binding” value is given as 94.5 ± 10.0%.
On the same count and under the same terms, the result for `CC(C)C(=O)Nc1ccc([N+](=O)[O-])c(C(F)(F)F)c1` [Flutamide] reads 84.4 ± 23.0%.
Consider `COCCCC/C(=N\OCCN)c1ccc(C(F)(F)F)cc1` [Fluvoxamine maleate], for which the “% 25 nM CA200645 binding” value was determined as 100.9 ± 16.7%.
With `C=C[C@@]1(C)CC(=O)[C@]2(O)[C@@]3(C)[C@@H](O)CCC(C)(C)[C@@H]3[C@H](O)[C@H](OC(C)=O)[C@@]2(C)O1` [Forskolin], the “% 25 nM CA200645 binding” value came to 100.9 ± 7.2%.
In the case of `C[C@]12CC[C@@H]3c4ccc(O)cc4C[C@@H](CCCCCCCCC[S+]([O-])CCCC(F)(F)C(F)(F)F)[C@H]3[C@@H]1CC[C@@H]2O` (stereo partly shown) [Fulvestrant], the “% 25 nM CA200645 binding” value came out at 100.4 ± 12.1%.
The same measure, in the same setting: the result for `O=C([O-])c1cc2cc(Cc3cccnc3)ccc2o1.[Na+]` [Furegrelate sodium] reads 89.9 ± 4.6%.
Take `NS(=O)(=O)c1cc(C(=O)O)c(NCc2ccco2)cc1Cl` [Furosemide]: the “% 25 nM CA200645 binding” value was found to be 95.7 ± 5.9%.
With `CCCCc1ccc(C(=O)O)nc1` [Fusaric acid], the “% 25 nM CA200645 binding” value was found to be 66.5 ± 29.0%.
For the compound `CC(=O)O[C@H]1C[C@@]2(C)[C@@H](C[C@@H](O)[C@H]3[C@@]4(C)CC[C@@H](O)[C@@H](C)[C@@H]4CC[C@@]32C)/C1=C(\CCC=C(C)C)C(=O)[O-].[Na+]` [Fusidic acid sodium], the “% 25 nM CA200645 binding” value is on record as 93.0 ± 9.1%.
On to `NCCCC(=O)O` [GABA], for which the “% 25 nM CA200645 binding” value amounted to 95.6 ± 8.2%.
Consider `Cl.Cl.Fc1ccc(C(OCCN2CCN(CCCc3ccccc3)CC2)c2ccc(F)cc2)cc1` [GBR-12909 dihydrochloride], for which the “% 25 nM CA200645 binding” value was found to be 95.7 ± 6.3%.
With `COc1ccc(CNC(=O)/C=C/c2ccc3[nH]cc(CCN(C)C)c3c2)cc1` [GR 46611], the “% 25 nM CA200645 binding” value came to 100.9 ± 13.0%.
Take `Br.Br.CN(C)CCCc1cc(C(=O)Nc2ccc(-c3ccncc3)cc2)ccc1O` [GR 55562 dihydrobromide]: the “% 25 nM CA200645 binding” value is listed as 92.8 ± 13.3%.
For `OC[C@H]1O[C@@H](n2cnc3c(N[C@H]4CCC[C@@H]4O)ncnc32)[C@H](O)[C@@H]1O` [GR 79236X], the “% 25 nM CA200645 binding” value is given as 78.0 ± 19.3%.
In the case of `Cn1cc(C(=O)OCC2CCN(CCNS(C)(=O)=O)CC2)c2ccccc21` [GR 113808], the “% 25 nM CA200645 binding” value is 92.8 ± 8.0%.
Take `CN(C)c1cc2c(Nc3ccc4c(cnn4Cc4ccccc4)c3)ncnc2cn1` [GW2974]: the “% 25 nM CA200645 binding” value is listed as 57.3 ± 11.9%.
As for `CC(C)(Sc1ccc(CCN(CCCCC2CCCCC2)C(=O)NC2CCCCC2)cc1)C(=O)O` [GW7647], the “% 25 nM CA200645 binding” value came out at 55.8 ± 12.2%.
Turning to `O=C(O)CCc1ccc(NCc2cccc(Oc3ccccc3)c2)cc1` [GW9508], the “% 25 nM CA200645 binding” value amounted to 94.4 ± 0.8%.
Consider `O=C(Nc1ccccc1)c1cc([N+](=O)[O-])ccc1Cl` [GW9662], for which the “% 25 nM CA200645 binding” value is recorded as 114.5 ± 11.5%.
Same read-out and setting: the result for `CC1=NN=C(c2ccc(N)cc2)c2cc3c(cc2C1)OCO3.Cl` [GYKI 52466 hydrochloride] reads 78.2 ± 10.4%; that for `Cl.NC1C=CC=C(C(=O)O)C1` (stereo not shown) [Gabaculine hydrochloride], 97.5 ± 8.4%; that for `NCC1(CC(=O)O)CCCCC1` [Gabapentin], 80.7 ± 22.8%.
Same read-out and setting: the result for `CC[N+](CC)(CC)CCOc1cccc(OCC[N+](CC)(CC)CC)c1OCC[N+](CC)(CC)CC` [Gallamine triethiodide] reads 78.3 ± 38.7%; that for `CC(=O)[C@H]1CC[C@H]2[C@@H]3CC[C@H]4C[C@](C)(O)CC[C@]4(C)[C@H]3CC[C@]12C` [Ganaxolone], 83.6 ± 13.4%; that for `Nc1nc(O)c2ncn(COC(CO)CO)c2n1` [Ganciclovir], 96.3 ± 6.5%.
Still for that read-out and setting: for `Nc1ccn([C@@H]2O[C@H](CO)[C@@H](O)C2(F)F)c(=O)n1` [Gemcitabine hydrochloride] the value was 106.0 ± 4.9%; for `COC(=O)C1=CO[C@@H](O)[C@@H]2C(CO)=CC[C@H]12` [Genipin], 96.3 ± 9.0%.
For `Cc1cnc(C(=O)NCCc2ccc(S(=O)(=O)NC(=O)NC3CCCCC3)cc2)cn1` [Glipizide], the “% 25 nM CA200645 binding” value is 96.3 ± 1.2%.
For the compound `COc1ccc(Cl)cc1C(=O)NCCc1ccc(S(=O)(=O)NC(=O)NC2CCCCC2)cc1` [Glybenclamide], the “% 25 nM CA200645 binding” value was 92.8 ± 16.7%.
Consider `Cc1cc2c(C(C)C)c(O)c(O)c(C=O)c2c(O)c1-c1c(C)cc2c(C(C)C)c(O)c(O)c(C=O)c2c1O` [Gossypol], for which the “% 25 nM CA200645 binding” value came to 54.1 ± 12.3%.
For `CN1C2CCCC1CC(NC(=O)c1nn(C)c3ccccc13)C2` (stereo not shown) [Granisetron hydrochloride], the “% 25 nM CA200645 binding” value was found to be 100.4 ± 14.5%.
Regarding `N=C(N)N/N=C/c1c(Cl)cccc1Cl` [Guanabenz acetate], the “% 25 nM CA200645 binding” value is recorded as 98.2 ± 11.7%.
With `CNCCNS(=O)(=O)c1cccc2cnccc12.Cl.Cl` [H-8 dihydrochloride], the “% 25 nM CA200645 binding” value is given as 106.4 ± 6.7%.
For `CCCCC#Cc1nc(NC)c2ncn([C@@H]3O[C@H](CO)[C@@H](O)[C@H]3O)c2n1` [HEMADO, reference compound], the “% 25 nM CA200645 binding” value is on record as 40.1 ± 10.4%.
On to `C[N+](C)(C)CCCCCC[N+](C)(C)C` [Hexamethonium bromide], for which the “% 25 nM CA200645 binding” value was determined as 99.4 ± 1.1%.
On to `C[N+](C)(C)CCCCCC[N+](C)(C)C.[Cl-].[Cl-]` [Hexamethonium dichloride], for which the “% 25 nM CA200645 binding” value was 100.8 ± 9.2%.
With `O=c1cc(O)cc(/C=C/c2ccc(O)c(O)c2)o1` [Hispidin], the “% 25 nM CA200645 binding” value is 77.8 ± 19.6%.
Take `NCCc1c[nH]cn1` [Histamine dihydrochloride]: the “% 25 nM CA200645 binding” value was determined as 102.0 ± 10.2%.
Take `NNc1nncc2ccccc12` [Hydralazine hydrochloride]: the “% 25 nM CA200645 binding” value stood at 100.6 ± 8.6%.
For `NS(=O)(=O)c1cc2c(cc1Cl)NCNS2(=O)=O` [Hydrochlorothiazide], the “% 25 nM CA200645 binding” value was 95.6 ± 3.9%.
Take `C[C@]12CCC(=O)C=C1CC[C@@H]1[C@@H]2[C@@H](O)C[C@@]2(C)[C@H]1CC[C@]2(O)C(=O)CO` [Hydrocortisone]: the “% 25 nM CA200645 binding” value is 84.4 ± 24.1%.
In the case of `Oc1ccc(O)cc1` [Hydroquinone], the “% 25 nM CA200645 binding” value was 100.7 ± 6.6%.

The assay is the same for the next values; noted with them: % of 25 nM CA200645 binding in the presence of 10 μM compound, LOPAC full screen, A3AR CHO cells.
For the compound `CCCn1c(=O)c2[nH]c(C3CCCC3)nc2n(CCCOC(=O)c2ccc(S(=O)(=O)F)cc2)c1=O` [FSCPX, reference compound], the “% Total CA200645 binding” value was found to be 57.5 ± 23.0%.
As to `CCCCC#Cc1nc(NC)c2ncn([C@@H]3O[C@H](CO)[C@@H](O)[C@H]3O)c2n1` [HEMADO, reference compound], the “% Total CA200645 binding” value is reported as 40.1 ± 10.5%.

Staying with this assay, now noted: % of control wells (1% DMSO and 25 nM CA200645); compounds at 10 µM; whole live cells expressing the A3AR; mean ± SD, three experiments in duplicate.
`Cc1nc2c([nH]1)c(=O)n(C)c(=O)n2Cc1ccco1` [Furafylline]: the “% 25 nM CA200645 binding” value worked out at 49.5± 5.8%.
Consider `O=c1c(-c2ccc(O)cc2)coc2cc(O)cc(O)c12` [Genistein], for which the “% 25 nM CA200645 binding” value is 66.1 ± 12.2%.
Consider `O=C(O)C1=CCCNC1` [Guvacine hydrochloride], for which the “% 25 nM CA200645 binding” value turned out to be 99.3 ± 14.1%.

The assay is the same for the next values; noted with them: compounds tested at 10 µM; % of control wells (1% DMSO and 25 nM CA200645); whole live cells expressing the A3AR; mean ± SD, three experiments in duplicate.
For the compound `COc1cccc2c1[C@@H]1CN(CCCCn3c(=O)[nH]c4c(sc5ncc(-c6ccccc6)nc54)c3=O)C[C@@H]1CO2` [Fiduxosin hydrochloride], the “% 25 nM CA200645 binding” value turned out to be 92.6 ± 13.4%.
